# Results taken from patent US20160303182A1, “USE OF PEPTIDES IN ANTIBIOTIC RESISTANCE” (priority 2013, published 2016).
# Bridges are numbered along the chain shown (N, C = ends). Where no end group is shown, it is not given here.
# Legend:
# [1] = test system: Klebsiella pneumoniae ATCC 700603 (MDR resistant strain); experiment: CFU count after 24 h incubation with antibiotic alone or with grZ14s-nvCyc; assay type: cell-based
# Method: Klebsiella pneumoniae ATCC 700603 (MDR resistant strain: Resistant to ampicillin, aztreonam, cefoxitin, cefpodoxime, ceftazidime, chloramphenicol, piperacillin, tetracycline) (3×10^5 CFU/mL) was incubated with either ampicillin, alone or with the grZ14s-nvCyc peptide (10 nM), for 24 hours at 37° C. with shaking (250 rpm). The solutions in the tubes were diluted ten-fold with phosphate buffered saline (PBS) by serial dilutions. The diluted solutions were then seeded on a blood plate agar and incubated at 37° C. for 24 hours.
# A similar assay was performed with K. pneumoniae at lower bacterial concentrations of 2×10^3 CFU/mL.
# K. pneumoniae ATCC 700603 (MDR resistant strain: Resistant to ampicillin, aztreonam, cefoxitin, cefpodoxime, ceftazidime, chloramphenicol, piperacillin, tetracycline) (2×10^6 CFU/mL) was incubated with either cefoxitin, alone or with the grZ14s-nvCyc peptide (10 nM), for 24 hours at 37° C. with shaking (250 rpm). The solutions were then treated as described in the examples above.
# Similarly, K. pneumoniae ATCC 700603 (MDR resistant strain: Resistant to ampicillin, aztreonam, cefoxitin, cefpodoxime, ceftazidime, chloramphenicol, piperacillin, tetracycline) (4×10^6 CFU/mL) was incubated with chloramphenicol, alone or with grZ14s-nvCyc, as described in the Examples above.
# Similarly, K. pneumoniae ATCC 700603 (MDR resistant strain: Resistant to ampicillin, aztreonam, cefoxitin, cefpodoxime, ceftazidime, chloramphenicol, piperacillin, tetracycline) (1×10^3 CFU/mL) was incubated with chloramphenicol, alone or with grZ14s-nvCyc, as described in the Examples above.
# [2] = test system: K. pneumoniae ATCC BAA 1705 (carbapenemase positive strain); experiment: as above; assay type: cell-based, Klebsiella pneumoniae
# Method: K. pneumoniae ATCC BAA® 1705 (3×10^2 CFU/mL) (carbapenemase positive strain) (carbapenem-imipenem and ertapenem, amikacin, aztreonam, levofloxacin and ciprofloxacin-resistant strain) was incubated with imipenem, alone or with the grZ14s-nvCyc peptide (10 nM), for 24 hours at 37° C. with shaking (250 rpm). The solutions were then treated as described in the examples above. […]
# Similarly, K. pneumoniae ATCC BAA® 1705 (1×10^5 CFU/mL) was incubated with ciprofloxacin, alone or with grZ14s-nvCyc, as described in the Examples above. […]
# K. pneumoniae ATCC BAA® 1705 (2×10^6 CFU/mL) (carbapenem-imipenem and ertapenem, amikacin, aztreonam, levofloxacin and ciprofloxacin-resistant strain) was incubated with levofloxacin, alone or with grZ14s-nvCyc, as described in the Examples above.
# K. pneumoniae ATCC BAA® 1705 (1×10^5 CFU/mL) (carbapenem-imipenem and ertapenem, amikacin, aztreonam, levofloxacin and ciprofloxacin-resistant strain) was incubated with aztreonam, alone or with grZ14s-nvCyc, as described in the Examples above. […]
# [3] = test system: methicillin sensitive S. aureus ATCC 25923 (MSSA); experiment: as above; assay type: cell-based, Staphylococcus aureus
# Method: (§1) Staphylococcus aureus ATCC 43300 (5×10^5 CFU/mL) (MRSA strain) was incubated in 1.5 mL Eppendorf tubes with either oxacillin alone or oxacillin with the grZ14s-nvCyc peptide (10 nM) (cyclized CSVHSFDYDWYNVC) for 24 hours at 37° C. with shaking (250 rpm). The solutions in the tubes were diluted ten-fold with phosphate buffered saline (PBS) by serial dilutions. The diluted solutions were then seeded on a blood agar plate and incubated at 37° C. for 24 hours. The results represent the number of Colony Forming Unit (CFU) counts on the blood agar plates.
# As a comparison, a strain of methicillin sensitive S. aureus ATCC 25923 (5×10^5 CFU/mL) was treated with oxacillin, alone or with the grZ14s-nvCyc (10 nM).
# (§2) A similar assay was performed with S. aureus ATCC 43300 at a concentration of 7×10^6 CFU/mL. The bacterial concentration in this assay is higher (˜7×10^6 CFU/mL).
# (§3) S. aureus ATCC 33591 (MRSA strain) (5×10^7 CFU/mL) and methicillin sensitive strain (MSSA) of S. aureus ATCC 25923 (1×10^8 CFU/mL) were incubated in 1.5 mL Eppendorf tubes with either oxacillin alone or oxacillin with the grZ14s-nvCyc (10 nM) for 24 hours at 37° C. with shaking (250 rpm). The solutions in the tubes were diluted ten-fold with PBS by serial dilutions. The diluted solutions were then seeded on a blood plate agar and incubated at 37° C. for 24 hours.
# [4] = test system: S. aureus ATCC 33591 (MRSA strain); experiment: as above; assay type: cell-based, Staphylococcus aureus; settings: 10 nM grZ14s-nvCyc
# Method: as §3
# S. aureus ATCC 33591 (5×10^5 CFU/mL) (MRSA strain) was incubated in 1.5 mL Eppendorf tubes with oxacillin, alone or with the grZ14s-nvCyc peptide (10 nM), for 24 hours at 37° C. with shaking (250 rpm). […] The solutions in the tubes were diluted ten-fold with phosphate buffered saline (PBS) by serial dilutions. The diluted solutions were then seeded on a blood plate agar and incubated at 37° C. for 24 hours.
# [5] = test system: Enterococcus faecium ATCC 700221 (vancomycin, teicoplanin and tetracyclin resistant strain); experiment: as above; assay type: cell-based; settings: for bacteria killing concentration of tetracyclin lower with grZ14s-nvCyc than with tetracyclin alone: grZ14s-nvCyc (10 mN)
# Method: Enterococcus faecium ATCC 700221 (4×10^2 CFU/mL) (vancomycin, teicoplanin and tetracyclin resistant strain) was incubated in 1.5 mL Eppendorf tubes with either vancomycin, alone or with the grZ14s-nvCyc peptide (10 nM), for 24 hours at 37° C. with shaking (250 rpm). The solutions in the tubes were diluted ten-fold with phosphate buffered saline (PBS) by serial dilutions. The diluted solutions were then seeded on a blood plate agar and incubated at 37° C. for 24 hours.
# E. faecium ATCC 700221 (2×10^2 CFU/mL) (vancomycin, teicoplanin and tetracyclin resistant strain) was incubated with either teicoplanin, alone or with the grZ14s-nvCyc peptide (10 nM), for 24 hours at 37° C. with shaking (250 rpm). The solutions were treated as described above.
# E. faecium ATCC 700221 (1×10^3 CFU/mL) (vancomycin, teicoplanin and tetracyclin resistant strain) was incubated with tetracyclin, alone or with grZ14s-nvCyc ([…]), as described in the Examples above. […] Similarly, E. faecium ATCC 700221 (2×10^5 CFU/mL) (vancomycin, teicoplanin and tetracyclin resistant strain) was incubated with tetracyclin, alone or with grZ14s-nvCyc ([…]), as described in the Examples above.
# [6] = test system: S. aureus ATCC BAA 1708 (MRSA strain, mupA positive); experiment: CFU count after incubation with mupirocin alone or with grZ14s-nvCyc; assay type: cell-based, Staphylococcus aureus; settings: 1×10^5 CFU/mL; 10 nM grZ14s-nvCyc; FIG. 12
# Method: as §1
# S. aureus ATCC BAA® 1708 (MRSA strain, mupA positive) (1×10^5 CFU/mL) was incubated with mupirocin, alone or with grZ14s-nvCyc as described in the Examples above.
# [7] = test system: Staphylococcus aureus ATCC 43300 (MRSA strain); experiment: CFU count after 24 h incubation with antibiotic alone or with grZ14s-nvCyc; assay type: cell-based; settings: for bacteria killing concentration of oxacillin with grZ14s-nvCyc versus oxacillin alone: 10 nM grZ14s-nvCyc
# Method: as §1, §2
molecule,measurement,setting,value
"CC1(C)S[C@@H]2[C@H](NC(=O)[C@H](N)c3ccccc3)C(=O)N2[C@H]1C(=O)O [ampicillin, reference compound]",bacteria killing by ampicillin alone,"[1]; 2×10^3 CFU/mL, FIG. 8",achieves bacteria killing with the antibiotic alone
same,bacterial killing by ampicillin alone,"[1]; 3×10^5 CFU/mL, even very high concentrations of ampicillin, FIG. 7",could not achieve bacterial killing
cyclized CSVHSFDYDWYNVC (disulfide 1-14 (inferred); not fully specified) [grZ14s-nvCyc],bacteria killing concentration of ciprofloxacin lower with grZ14s-nvCyc than with ciprofloxacin alone,"[2]; 1×10^5 CFU/mL, 10 nM grZ14s-nvCyc, FIG. 14",80%
same,aztreonam concentration at which aztreonam with grZ14s-nvCyc achieves bacteria killing,"[2]; 1×10^5 CFU/mL, 10 nM grZ14s-nvCyc, FIG. 19",1000 µg/mL
same,bacteria killing concentration of amikacin with grZ14s-nvCyc lower than with amikacin alone,"[2]; 1×10^6 CFU/mL, incubated with amikacin, alone or with grZ14s-nvCyc, FIG. 17",75%
same,bacteria killing concentration of levofloxacin with grZ14s-nvCyc lower than with levofloxacin alone,"[2]; 2×10^6 CFU/mL, 10 nM grZ14s-nvCyc, FIG. 18",30%
same,bacteria killing concentration of imipenem lower with grZ14s-nvCyc than in imipenem alone,"[2]; 3×10^2 CFU/mL, 10 nM grZ14s-nvCyc, FIG. 10",> 75%
same,difference between the activity of oxacillin with or without grZ14s-nvCyc,"[3]; 1×10^6 CFU/mL, 10 nM grZ14s-nvCyc, FIG. 4b",no significant difference
same,bacteria killing concentration of oxacillin in the presence of the peptide versus oxacillin alone,"[3]; 1×10^8 CFU/mL, 10 nM grZ14s-nvCyc, FIG. 3",reduced to about half
same,difference between the activity of oxacillin with or without grZ14s-nvCyc,"[3]; 5×10^5 CFU/mL, 10 nM grZ14s-nvCyc, FIG. 1b",no significant difference
same,bacteria killing concentration of oxacillin with grZ14s-nvCyc versus oxacillin alone,"[4]; 5×10^5 CFU/mL, FIG. 4a",much lower
same,bacteria killing concentration of oxacillin in the presence of the peptide versus oxacillin alone,"[4]; 5×10^7 CFU/mL, FIG. 3",reduced to about half
same,bacteria killing concentration of tetracyclin lower with grZ14s-nvCyc than with tetracyclin alone,"[5]; 1×10^3 CFU/mL, FIG. 13a",60%
same,bacteria killing concentration of teicoplanin lower with grZ14s-nvCyc than with teicoplanin alone,"[5]; 2×10^2 CFU/mL, 10 nM grZ14s-nvCyc, FIG. 6",about 60%
same,bacteria killing concentration of tetracyclin lower with grZ14s-nvCyc than with tetracyclin alone,"[5]; 2×10^5 CFU/mL, FIG. 13b",~70%
same,bacteria killing concentration of vancomycin lower with grZ14s-nvCyc than with vancomycin alone,"[5]; 4×10^2 CFU/mL, 10 nM grZ14s-nvCyc, FIG. 5",about 50%
same,bacterial load in the presence of a combination of mupirocin and grZ14s-nvCyc,[6],reduced by at least one order of magnitude
same,bacteria killing concentration of oxacillin with grZ14s-nvCyc versus oxacillin alone,"[7]; 5×10^5 CFU/mL, 24 h, 37° C., FIG. 1a",much lower
same,bacteria killing concentration of oxacillin with grZ14s-nvCyc versus oxacillin alone,"[7]; 7×10^6 CFU/mL, FIG. 2",much lower
same,"oxacillin concentration needed to kill the bacteria, with grZ14s-nvCyc","[7]; ~7×10^6 CFU/mL, oxacillin with 10 nM grZ14s-nvCyc, FIG. 2",6.25 µg/mL
same,bacteria killing concentration of chloramphenicol with grZ14s-nvCyc lower than with chloramphenicol alone,"[1]; 1×10^3 CFU/mL, 10 nM grZ14s-nvCyc, FIG. 16",20%
same,bacteria killing concentration of ampicillin lower with grZ14s-nvCyc than with ampicillin alone,"[1]; 2×10^3 CFU/mL, 10 nM grZ14s-nvCyc, FIG. 8",100 µg/mL
same,bacteria killing concentration of cefoxitin lower with grZ14s-nvCyc than in cefoxitin alone,"[1]; 2×10^6 CFU/mL, 10 nM grZ14s-nvCyc, FIG. 9",> 80%
same,bacteria killing activity of ampicillin with grZ14s-nvCyc at lower concentrations,"[1]; 3×10^5 CFU/mL, 10 nM grZ14s-nvCyc, FIG. 7",~100%
same,bacteria killing by chloramphenicol with grZ14s-nvCyc,"[1]; 4×10^6 CFU/mL, 10 nM grZ14s-nvCyc, FIG. 15",achieves bacteria killing at a concentration where chloramphenicol alone does not achieve bacteria killing
"O=C(N[C@H](CO)[C@H](O)c1ccc([N+](=O)[O-])cc1)C(Cl)Cl [chloramphenicol, reference compound]",bacteria killing by chloramphenicol alone,"[1]; 1×10^3 CFU/mL, FIG. 16",can achieve bacteria killing activity
same,bacteria killing by chloramphenicol alone,"[1]; 4×10^6 CFU/mL, at the concentration where the combination kills, FIG. 15",does not achieve bacteria killing
"Cc1onc(-c2ccccc2)c1C(=O)N[C@@H]1C(=O)N2[C@@H]1SC(C)(C)[C@@H]2C(=O)O [oxacillin, reference compound]",oxacillin concentration needed to kill the bacteria,"[3]; ~7×10^6 CFU/mL, oxacillin alone, FIG. 2",12.5 µg/mL
"C[C@H]1[C@H](NC(=O)/C(=N\OC(C)(C)C(=O)O)c2csc(N)n2)C(=O)N1S(=O)(=O)O [aztreonam, reference compound]",bacteria killing by aztreonam alone,"[2]; 1×10^3 CFU/mL, FIG. 19b",able achieve bacteria killing activity
same,bacteria killing by aztreonam alone,"[2]; 1×10^5 CFU/mL, at 1000 μg/ml aztreonam, FIG. 19",does not achieve bacteria killing
